Data reported in the NIST ThermoML archive (doi:10.1016/j.tca.2012.06.011).
Where “and” joins values, the source holds several entries; their conditions need not be identical. Identical values can stand only once. ± gives the expanded uncertainty stated by the source.

How the values were obtained:
[1] = 101 kPa, Liquid; for viscosity: Capillary tube (Ostwald / Ubbelohde) method; for mass density: Vibrating tube method
[2] = xn = mol fraction of the nth substance listed; settings: 101 kPa, Liquid; for viscosity: Capillary tube (Ostwald / Ubbelohde) method; for mass density: Vibrating tube method

CN1CCNCC1 [N-methylpiperazine]
[1]
Settings	mass density [kg/m3]	viscosity [mPa·s]
298.15 K	899.28 ± 0.13	1.854 ± 0.024
303.15 K	894.9 ± 0.13	1.583 ± 0.02
308.15 K	890.5 ± 0.13	1.409 ± 0.017
313.15 K	886.07 ± 0.13	1.258 ± 0.015
323.15 K	877.28 ± 0.13	1.064 ± 0.013

C1C[C@@H]2[C@H]3CC[C@H](C3)[C@@H]2C1 [exo-tetrahydrodicyclopentadiene]
[1]
Settings	mass density	viscosity [mPa·s]
298.15 K	931.29 ± 0.76 kg/m3	2.8 ± 0.043
303.15 K	927.38 ± 0.75 kg/m3	2.549 ± 0.039
308.15 K	923.45 ± 0.75 kg/m3 and 923.46 ± 0.75 kg/m3	2.332 ± 0.036
313.15 K	919.54 ± 0.75 kg/m3	2.124 ± 0.033
323.15 K	911.7 ± 0.74 kg/m3	1.811 ± 0.028

C1C[C@@H]2[C@H]3CC[C@H](C3)[C@@H]2C1 [exo-tetrahydrodicyclopentadiene] + CN1CCNCC1
[2], x2 = 0
Settings	mass density [kg/m3]	viscosity [mPa·s]
298.15 K	931.29 ± 0.76	2.8 ± 0.043
303.15 K	927.38 ± 0.75	2.549 ± 0.039
308.15 K	923.45 ± 0.75	2.332 ± 0.036
313.15 K	919.54 ± 0.75	2.124 ± 0.033
323.15 K	911.7 ± 0.74	1.811 ± 0.028

CCN(CC)CC [triethylamine]
[1]
Settings	mass density [kg/m3]	viscosity [mPa·s]
298.15 K	724.21 ± 0.25	0.366 ± 0.005
303.15 K	719.54 ± 0.25	0.34 ± 0.005
308.15 K	714.84 ± 0.25	0.334 ± 0.004
313.15 K	710.1 ± 0.25	0.331 ± 0.004
323.15 K	700.71 ± 0.25	0.298 ± 0.004

CCN(CC)CC [triethylamine] + C1C[C@@H]2[C@H]3CC[C@H](C3)[C@@H]2C1
[2], x1 = 1
Settings	mass density [kg/m3]	viscosity [mPa·s]
298.15 K	724.21 ± 0.25	0.366 ± 0.005
303.15 K	719.54 ± 0.25	0.34 ± 0.005
308.15 K	714.84 ± 0.25	0.334 ± 0.004
313.15 K	710.1 ± 0.25	0.331 ± 0.004
323.15 K	700.71 ± 0.25	0.298 ± 0.004
